Laboratory results from patent publication US4714699A, “2-tolylmorpholine derivatives and pharmaceutical compositions” (Societe Anonyme Dite: Laboratoire L. Lafon, priority 1983, dated 1987).
“Also recorded” adds a separate entry of the source.

Tests used:
[1] = interaction with apomorphine in rats; assay type: in vivo, male rats; conditions: i.p., 0.5 mg/kg apomorphine
Experimental: (§1) In the following tests, CRL 40 875, in solution in distilled water, was administered intraperitoneally in a volume of 20 ml/kg to male mice and 5 ml/kg to male rats.
CRL 40 875 is administered to groups of 6 rats 0.5 hour before the subcutaneous injection of 0.5 mg/kg of apomorphine.
(§2) In the following tests, CRL 40 897, in solution in distilled water (pH 4), was administered intraperitoneally in a volume of 20 ml/kg to male mice and in a volume of 5 ml/kg to male rats, the procedures being those given above for CRL 40 875.
(§3) In the tests undertaken, CRL 40 912, in solution in distilled water (pH 4.5), was administered intraperitoneally in a volume of 20 ml/kg to male mice and in a volume of 5 ml/kg to male rats, the procedures being those given above for CRL 40 875.

[2] = action on the spontaneous motility; assay type: in vivo, male mice; conditions: mice
Experimental: as §1
Half an hour after they have received CRL 40 875, the mice (6 per dose, 12 control animals) are placed in an actimeter, where their motility is recorded for 30 minutes.
as §2

[3] = action on the intergroup aggressiveness; assay type: in vivo, male mice; conditions: i.p., mice
Experimental: as §1
After they have stayed for 3 weeks in the two halves of a cage divided by an opaque partition, groups of 3 mice receive CRL 40 875. Half an hour later, the two groups from the same cage are brought together by removal of the partition, and the number of fights which occur in 10 minutes is noted.
as §2, §3

[4] = overall behavior and reactivities in mice; assay type: in vivo, male mice; conditions: mice
Experimental: as §1
Groups of three mice are observed before and then 15 minutes, 30 minutes, 1 hour, 2 hours, 3 hours and 24 hours after the administration of CRL 40 875.
as §2
(§4) The toxicological and neuropsychopharmacological studies undertaken in accordance with the procedures described above for CRL 40 875 enabled the following observations to be made: […]

[5] = clinical trials, treatment of depressions; assay type: in vivo; conditions: man
From the text: In clinical trials, good results were obtained on man with CRL 40 875 (Example 1), CRL 40 912 (Example 2) and CRL 40 897 (Example 3) in the treatment of depressions.

four plate test = assay type: in vivo, male mice; conditions: i.p., mice
Experimental: as §1
(§5) The test is performed on groups of 10 mice half an hour after the administration of CRL 40 875.
as §2

[6] = interaction with apomorphine in mice; assay type: in vivo, male mice; conditions: mice
Experimental: as §1
Groups of 6 mice receive CRL 40 875 0.5 hour before the subcutaneous injection of 1 or 16 mg/kg of apomorphine.
as §2, §3

[7] = interaction with reserpine; assay type: in vivo, male mice; conditions: i.p., mice
Experimental: as §1
Four hours after the intraperitoneal injection of 2.5 mg/kg of reserpine, groups of 6 mice receive CRL 40 875. The effects on the temperature and ptosis are observed.
as §2, §3

[8] = pretoxicity (LD-O, maximum non-lethal dose); assay type: in vivo, male mice
Experimental: as §1, §2, §3, §4

[9] = neuropsychopharmacological study, overall findings; assay type: in vivo, mice, rats
Experimental: as §1, §2, §3, §4

traction test = assay type: in vivo, male mice; conditions: i.p., mice
Experimental: as §1, §5, §2

[10] = asphyxiant anoxia (gallamine triiodoethylate); assay type: in vivo, male mice; conditions: i.p., mice
Experimental: as §1
Groups of 20 mice receive CRL 40 875 half an hour before the intraperitoneal administration of 32 mg/kg of gallamine triidoethylate (which is a reference curarizing agent).
as §2, §3

electric shock = assay type: in vivo, male mice; conditions: i.p., mice
Experimental: as §1, §5, §2

α-adrenergic = α-adrenergic stimulation; conditions: in vivo
[11] = motility reduced by habituation to the enclosure; assay type: in vivo, male mice; conditions: i.p.
Experimental: as §1
After they have stayed in the actimeters for 18 hours, the mice (6 per dose, 12 control animals) receive CRL 40 875. They are immediately returned to their respective enclosures and, half an hour later, their motility is recorded for 30 minutes.
as §2, §3

[12] = motility reduced by hypoxic aggression; assay type: in vivo, male mice; conditions: i.p.
Experimental: as §1
Half an hour after they have received CRL 40 875, the mice (10 per dose, 20 control animals) are subjected to acute hypobaric anoxia [pressure reduction of 600 mm Hg (i.e. about 8×10^4 pascals) in 90 seconds; release of vacuum in 45 seconds] and are then placed in an actimeter, where their motility is recorded for 10 minutes.
as §2

[13] = interaction with amphetamine; assay type: in vivo, male rats; conditions: i.p.; 2 mg/kg amphetamine; rats
Experimental: as §1, §2, §3

[14] = interaction with oxotremorine; assay type: in vivo, male mice; conditions: mice
Experimental: as §1
CRL 40 875 is administered to groups of 6 mice half an hour before the intraperitoneal injection of 0.5 mg/kg of oxotremorine.
as §2, §3

Q: What does the source list for `Cc1ccc(C2CN(C)CCO2)cc1.Cl` (stereo not drawn) [CRL 40 897, 2-p-tolyl-4-methylmorpholine hydrochloride]?
A: effect on stereotypies induced by apomorphine [1]: does not modify the stereotypies induced by apomorphine; minimal effective dose ([2]; Mus musculus, ip, read-out: dose as from which motility is reduced): ≥ 4 mg/kg; effect on spontaneous motor activity ([2]; as from 4 mg/kg i.p.): depresses the spontaneous motor activity of mice; effect on aggressiveness / number of fights [3]: does not cause a distinct reduction in the number of fights; duration of hypothermia ([4]; 4 mg/kg i.p.): 0.5 h; hypothermia (temperature change) ([4]; 4 mg/kg i.p.): -2.2 °C; duration of hypothermia ([4]; 16 mg/kg i.p.): 0.5 h; hypothermia (temperature change) ([4]; 16 mg/kg i.p.): -2.4 °C; depressed respiration, animals affected ([4]; 64 mg/kg i.p.): 2/3; duration of depressed respiration ([4]; 64 mg/kg i.p.): 3 h; duration of sedation ([4]; 64 mg/kg i.p.): 3 h; duration of significant salivation ([4]; 64 mg/kg i.p.): 1 h; hypothermia (temperature change) ([4]; 64 mg/kg i.p.): -2.2 °C; sedation, animals affected ([4]; 64 mg/kg i.p.): 3 out of 3; significant salivation, animals affected ([4]; 64 mg/kg i.p.): 3/3; results in the treatment of depressions [5]: good results; number of punished passes (four plate test): does not cause an increase in the number of punished passes; minimal effective dose ([6]; Mus musculus, ip, read-out: dose as from which hypothermic effect is present): ≥ 4 mg/kg; effect on the temperature drop induced by apomorphine ([6]; high dose (64 mg/kg) i.p.): partially counteracts the temperature drop induced by apomorphine; effect on righting behavior and stereotypies ([6]; i.p., apomorphine): without modifying the righting behavior and the stereotypies; effect on the hypothermia and ptosis induced by reserpine [7]: does not modify the hypothermia and ptosis induced by reserpine; signs of toxicity ([8]; 64 mg/kg i.p., mice): dyspnea, sedation; trembling, animals affected ([8]; 64 mg/kg i.p., mice): 1/3; mortality ([8]; 128 mg/kg i.p., groups of three mice): no mortality; signs of toxicity ([8]; 128 mg/kg i.p., groups of three mice, hydrochloride): dyspnea, trembling; also recorded: sedation; convulsions, animals affected ([8]; 128 mg/kg i.p., mice): 2/3; convulsions, animals affected ([8]; 256 mg/kg i.p., mice): 2/3; copious salivation, animals affected ([8]; 256 mg/kg i.p., mice): 1 out of 3; death, animals affected ([8]; 256 mg/kg i.p., mice): 3/3; signs of toxicity ([8]; 256 mg/kg i.p., mice): dyspnea; time to death ([8]; 256 mg/kg i.p., mice): 10 min; variation of sedative effects with dose ([9]; in vivo): increase continuously with the dose administered, up to a maximum value, and then decrease continuously and progressively as the dose increases; antidepressant effects ([9]; strong doses): antidepressants at strong doses; sedative effects ([9]; weak doses where stated): sedative effects (hypomotility, hypothermia, reduction of intergroup aggressiveness; major motor incapacity (traction test): does not cause major motor incapacity; time taken for convulsions and death to occur following asphyxiant anoxia [10]: delays the time taken for convulsions and death to occur; effect on electric shock (electric shock): does not modify the convulsant and lethal effects of electric shock; α-adrenergic stimulant effect (α-adrenergic): stimulant effects, especially of the α-adrenergic type; resumption in the activity of mice accustomed to their enclosure [11]: does not cause a resumption in the activity of mice accustomed to their enclosure; motor recovery in mice after reduced-pressure enclosure [12]: does not cause any improvement in the motor recovery; effect on stereotypies induced by amphetamine [13]: The increase observed in the other groups merely reflect this anomaly; minimal effective dose ([14]; Mus musculus, ip, read-out: dose as from which hypothermic effect is distinct): ≥ 4 mg/kg; effect on the temperature drop induced by oxotremorine ([14]; high dose (64 mg/kg) i.p.): partially counteracts the temperature drop induced by oxotremorine; effect on signs of peripheral cholinergic stimulation induced by oxotremorine ([14]; i.p.): leaves unchanged the signs of peripheral cholinergic stimulation induced by oxotremorine; effect on the trembling due to oxotremorine ([14]; i.p.): not influenced
